Test results: US20110287059A1, “HONEY ANALYSIS” (COMVITA NEW ZEALAND LIMITED, priority 2008, published 2011)

Test: Antioxidant activity by ABTS radical assay (Trolox Equivalent Antioxidant Capacity)
Assay type: biochemical
Details: standard
Protocol: Antioxidant activity was determined by the ABTS assay using a spectrophotometric method for antioxidant activity using the ABTS radical assay (expressed as Trolox Equivalent Antioxidant Capacity) based on the method of Miller & Rice-Evans (Miller, N.J.; Rice-Evans, C.A. 1997: Factors influencing the antioxidant activity determined by the ABTS+radical cation assay. Free Radical Research 26(3): 195-199). All samples were diluted with warm water as required to bring into the appropriate range for the assay.

COc1ccccc1C(=O)O [2-methoxybenzoic, 2-methoxybenzoic acid]
Antioxidant Activity by ABTS Assay, Average (80 mg/kg): 51.8 μmole TEAC/100 g

O=C(O)c1cc(O)c(O)c(O)c1 [gallic acid]
Antioxidant Activity by ABTS Assay, Average (700 mg/kg): 1695.4 μmole TEAC/100 g

COC(=O)c1cc(OC)c(O)c(OC)c1 [methylsyringate, methyl syringate]
Antioxidant Activity by ABTS Assay, Average (290 mg/kg): 85.1 μmole TEAC/100 g

COc1cc(C(=O)O)cc(OC)c1O [syringic acid]
Antioxidant Activity by ABTS Assay, Average (760 mg/kg): 499.6 μmole TEAC/100 g
